Tested on: human embryonic stem cell line H1
Experiment: OpenArray qRT-PCR mRNA expression in differentiating H1 cells
Format: cell-based
Conditions: Example 5, condition A, beginning of Stage 6, 100 nM
Description: In addition to monitoring the metabolic profile of the spent media through daily sampling, representative samples of cells were obtained throughout the differentiation process and tested for mRNA expression of a panel of genes via Applied Biosystems® OpenArray® (Life Technologies) and calculated as fold difference in expression compared to pluripotent ISM cells after 24 hours in culture from the beginning of the experiment. FIGS. 2A through M depict data for expression of the following genes in cells differentiated through the first day of Stage 5: PDX1 (FIG.2A); NKX6.1 (FIG. 2B); PAX4 (FIG. 2C); PAX6 (FIG. 2D); NEUROG3(NGN3) (FIG. 2E); ABCC8 (FIG. 2F); Chromogranin-A (“CHGA”) (FIG. 2G); G6PC2 (FIG. 2H); IAPP (FIG. 2I); insulin (“INS”) (FIG. 2J); glucagon (“GCG”) (FIG. 2K); PTF1a (FIG. 2L); and NEUROD1 (FIG. 2M).
In addition to determining cell protein expression by flow cytometry, samples throughout Stages 3 and 4 of the differentiation process were tested for mRNA expression of a gene panel using OpenArray® qRT-PCR. […]
Throughout the differentiation process cell samples were collected from the suspension cultures for analysis. Samples were analyzed for mRNA expression (OpenArray® qRT-PCR) and protein expression (flow cytometry and florescent immune-histochemistry).

## C[C@H](NC(=O)Cc1cc(F)cc(F)c1)C(=O)N[C@@H]1C(=O)N(C)c2ccccc2-c2ccccc21 [gamma secretase inhibitor XX]
  NGN3 expression: second induction of NGN3

From US20160215268A1, “Suspension Culturing of Pluripotent Stem Cells” (Janssen Biotech, Inc., priority 2014, published 2016)
